PubChem BioAssay (NCI)
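Tested at 5 concentrations; 48 h exposure; 96-well plates; endpoints linearly interpolated, else capped at highest concentration. TGI: total growth inhibition.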

Columns and labels:
Test in all cases: inhibition of tumour cell growth, NCI panel, 48 h
786-0 renal = tested on: 786-0 renal
A549 NSCLC = tested on: A549 NSCLC
ACHN renal = tested on: ACHN renal
BT-549 breast = tested on: BT-549 breast
CAKI-1 renal = tested on: CAKI-1 renal
CCRF-CEM leukemia = tested on: CCRF-CEM leukemia
COLO 205 colon = tested on: COLO 205 colon
DU-145 prostate = tested on: DU-145 prostate
EKVX NSCLC = tested on: EKVX NSCLC
HCT-116 colon = tested on: HCT-116 colon
HCT-15 colon = tested on: HCT-15 colon
HL-60(TB) leukemia = tested on: HL-60(TB) leukemia
HOP-62 NSCLC = tested on: HOP-62 NSCLC
HOP-92 NSCLC = tested on: HOP-92 NSCLC
HS 578T breast = tested on: HS 578T breast
HT29 colon = tested on: HT29 colon
IGROV1 ovarian = tested on: IGROV1 ovarian
K-562 leukemia = tested on: K-562 leukemia
KM12 colon = tested on: KM12 colon
LOX IMVI melanoma = tested on: LOX IMVI melanoma
M14 melanoma = tested on: M14 melanoma
MALME-3M melanoma = tested on: MALME-3M melanoma
MDA-MB-231 breast = tested on: MDA-MB-231 breast
MDA-MB-435 = tested on: MDA-MB-435
MDA-N = tested on: MDA-N
MOLT-4 leukemia = tested on: MOLT-4 leukemia
NCI-H226 lung = tested on: NCI-H226 lung
NCI-H23 lung = tested on: NCI-H23 lung
NCI-H460 lung = tested on: NCI-H460 lung
NCI-H522 lung = tested on: NCI-H522 lung
NCI/ADR-RES ovarian = tested on: NCI/ADR-RES ovarian
OVCAR-3 ovarian = tested on: OVCAR-3 ovarian
OVCAR-4 ovarian = tested on: OVCAR-4 ovarian
OVCAR-5 ovarian = tested on: OVCAR-5 ovarian
OVCAR-8 ovarian = tested on: OVCAR-8 ovarian
PC-3 prostate = tested on: PC-3 prostate
RXF 393 renal = tested on: RXF 393 renal
SF-268 CNS = tested on: SF-268 CNS
SF-295 CNS = tested on: SF-295 CNS
SF-539 CNS = tested on: SF-539 CNS
SK-MEL-2 melanoma = tested on: SK-MEL-2 melanoma
SK-MEL-28 melanoma = tested on: SK-MEL-28 melanoma
SK-MEL-5 melanoma = tested on: SK-MEL-5 melanoma
SK-OV-3 ovarian = tested on: SK-OV-3 ovarian
SN12C renal = tested on: SN12C renal
SNB-19 CNS = tested on: SNB-19 CNS
SNB-75 CNS = tested on: SNB-75 CNS
SW-620 colon = tested on: SW-620 colon
T-47D breast = tested on: T-47D breast
TK-10 renal = tested on: TK-10 renal
U251 CNS = tested on: U251 CNS
UACC-257 melanoma = tested on: UACC-257 melanoma
UACC-62 melanoma = tested on: UACC-62 melanoma
UO-31 renal = tested on: UO-31 renal
HCC-2998 colon = tested on: HCC-2998 colon
MCF7 breast = tested on: MCF7 breast
RPMI-8226 leukemia = tested on: RPMI-8226 leukemia
SR leukemia = tested on: SR leukemia
A498 renal = tested on: A498 renal

Structure (SMILES): Cc1c(S(=O)(=O)/N=C(\NO)Nc2ccc(Cl)cc2)sc2ccc(Cl)cc12
- TGI (786-0 renal): 32.3 µM
- TGI (A549 NSCLC): 33.8 µM
- TGI (ACHN renal): 28.5 µM
- TGI (BT-549 breast): 31.7 µM
- TGI (CAKI-1 renal): 34.3 µM
- TGI (CCRF-CEM leukemia): > 100 µM
- TGI (COLO 205 colon): 30.9 µM
- TGI (DU-145 prostate): 53.7 µM
- TGI (EKVX NSCLC): 25.1 µM
- TGI (HCT-116 colon): 27.4 µM
- TGI (HCT-15 colon): 30.6 µM
- TGI (HL-60(TB) leukemia): 47.3 µM
- TGI (HOP-62 NSCLC): 36.7 µM
- TGI (HOP-92 NSCLC): 28.8 µM
- TGI (HS 578T breast): 44.3 µM
- TGI (HT29 colon): 34.3 µM
- TGI (IGROV1 ovarian): 27.5 µM
- TGI (K-562 leukemia): > 100 µM
- TGI (KM12 colon): 41.7 µM
- TGI (LOX IMVI melanoma): 32.2 µM
- TGI (M14 melanoma): 31.2 µM
- TGI (MALME-3M melanoma): 33.8 µM
- TGI (MDA-MB-231 breast): 42.7 µM
- TGI (MDA-MB-435): 33.7 µM
- TGI (MDA-N): 32.9 µM
- TGI (MOLT-4 leukemia): > 100 µM
- TGI (NCI-H226 lung): 38.1 µM
- TGI (NCI-H23 lung): 33.6 µM
- TGI (NCI-H460 lung): 76.8 µM
- TGI (NCI-H522 lung): 22.7 µM
- TGI (NCI/ADR-RES ovarian): 37.9 µM
- TGI (OVCAR-3 ovarian): 25.8 µM
- TGI (OVCAR-4 ovarian): 38.3 µM
- TGI (OVCAR-5 ovarian): 33.3 µM
- TGI (OVCAR-8 ovarian): 32.2 µM
- TGI (PC-3 prostate): 31.1 µM
- TGI (RXF 393 renal): 47.1 µM
- TGI (SF-268 CNS): 35.6 µM
- TGI (SF-295 CNS): 41 µM
- TGI (SF-539 CNS): 42.1 µM
- TGI (SK-MEL-2 melanoma): 34.4 µM
- TGI (SK-MEL-28 melanoma): 32.9 µM
- TGI (SK-MEL-5 melanoma): 27.4 µM
- TGI (SK-OV-3 ovarian): 31.2 µM
- TGI (SN12C renal): 35.5 µM
- TGI (SNB-19 CNS): 35.2 µM
- TGI (SNB-75 CNS): 41.9 µM
- TGI (SW-620 colon): 63.1 µM
- TGI (T-47D breast): 89.9 µM
- TGI (TK-10 renal): 35.5 µM
- TGI (U251 CNS): 31.5 µM
- TGI (UACC-257 melanoma): 33.3 µM
- TGI (UACC-62 melanoma): 29.8 µM
- TGI (UO-31 renal): 52.5 µM

Structure (SMILES): Cc1nnc(NS(=O)(=O)c2ccc(N=Nc3c(O)c(C(=O)O)cc4ccccc34)cc2)s1
- TGI (786-0 renal): > 100 µM
- TGI (A549 NSCLC): > 100 µM
- TGI (ACHN renal): > 100 µM
- TGI (CAKI-1 renal): > 100 µM
- TGI (CCRF-CEM leukemia): > 100 µM
- TGI (COLO 205 colon): > 100 µM
- TGI (DU-145 prostate): > 100 µM
- TGI (EKVX NSCLC): > 100 µM
- TGI (HCC-2998 colon): > 100 µM
- TGI (HCT-116 colon): > 100 µM
- TGI (HCT-15 colon): > 100 µM
- TGI (HL-60(TB) leukemia): > 100 µM
- TGI (HOP-62 NSCLC): > 100 µM
- TGI (HOP-92 NSCLC): > 100 µM
- TGI (HS 578T breast): > 100 µM
- TGI (HT29 colon): > 100 µM
- TGI (IGROV1 ovarian): > 100 µM
- TGI (K-562 leukemia): > 100 µM
- TGI (KM12 colon): > 100 µM
- TGI (M14 melanoma): > 100 µM
- TGI (MALME-3M melanoma): > 100 µM
- TGI (MCF7 breast): > 100 µM
- TGI (MDA-MB-231 breast): > 100 µM
- TGI (MDA-MB-435): > 100 µM
- TGI (MDA-N): > 100 µM
- TGI (MOLT-4 leukemia): > 100 µM
- TGI (NCI-H226 lung): > 100 µM
- TGI (NCI-H23 lung): > 100 µM
- TGI (NCI-H460 lung): > 100 µM
- TGI (NCI-H522 lung): > 100 µM
- TGI (NCI/ADR-RES ovarian): > 100 µM
- TGI (OVCAR-3 ovarian): > 100 µM
- TGI (OVCAR-4 ovarian): > 100 µM
- TGI (OVCAR-5 ovarian): > 100 µM
- TGI (OVCAR-8 ovarian): > 100 µM
- TGI (PC-3 prostate): > 100 µM
- TGI (RPMI-8226 leukemia): > 100 µM
- TGI (RXF 393 renal): > 100 µM
- TGI (SF-268 CNS): > 100 µM
- TGI (SF-295 CNS): > 100 µM
- TGI (SF-539 CNS): > 100 µM
- TGI (SK-MEL-2 melanoma): > 100 µM
- TGI (SK-MEL-28 melanoma): > 100 µM
- TGI (SK-MEL-5 melanoma): > 100 µM
- TGI (SK-OV-3 ovarian): > 100 µM
- TGI (SN12C renal): > 100 µM
- TGI (SNB-19 CNS): > 100 µM
- TGI (SNB-75 CNS): > 100 µM
- TGI (SR leukemia): > 100 µM
- TGI (SW-620 colon): > 100 µM
- TGI (T-47D breast): > 100 µM
- TGI (TK-10 renal): > 100 µM
- TGI (U251 CNS): > 100 µM
- TGI (UACC-257 melanoma): > 100 µM
- TGI (UACC-62 melanoma): > 100 µM
- TGI (UO-31 renal): > 100 µM

Structure (SMILES): CC(=O)O[C@@H]1[C@H]2O[C@H]2[C@H]2O[C@@]2(COC(=O)c2ccccc2)[C@H]1OC(C)=O
- TGI (786-0 renal): > 100 µM
- TGI (A498 renal): > 100 µM
- TGI (A549 NSCLC): > 100 µM
- TGI (ACHN renal): > 100 µM
- TGI (BT-549 breast): > 100 µM
- TGI (CAKI-1 renal): > 100 µM
- TGI (CCRF-CEM leukemia): > 100 µM
- TGI (COLO 205 colon): > 100 µM
- TGI (DU-145 prostate): > 100 µM
- TGI (EKVX NSCLC): > 100 µM
- TGI (HCC-2998 colon): > 100 µM
- TGI (HCT-116 colon): > 100 µM
- TGI (HCT-15 colon): > 100 µM
- TGI (HL-60(TB) leukemia): > 100 µM
- TGI (HOP-92 NSCLC): > 100 µM
- TGI (HS 578T breast): > 100 µM
- TGI (HT29 colon): > 100 µM
- TGI (IGROV1 ovarian): > 100 µM
- TGI (K-562 leukemia): > 100 µM
- TGI (KM12 colon): > 100 µM
- TGI (LOX IMVI melanoma): > 100 µM
- TGI (M14 melanoma): > 100 µM
- TGI (MALME-3M melanoma): > 100 µM
- TGI (MCF7 breast): > 100 µM
- TGI (MDA-MB-231 breast): > 100 µM
- TGI (MDA-MB-435): > 100 µM
- TGI (MDA-N): > 100 µM
- TGI (MOLT-4 leukemia): > 100 µM
- TGI (NCI-H226 lung): > 100 µM
- TGI (NCI-H23 lung): > 100 µM
- TGI (NCI-H460 lung): > 100 µM
- TGI (NCI-H522 lung): > 100 µM
- TGI (NCI/ADR-RES ovarian): > 100 µM
- TGI (OVCAR-3 ovarian): > 100 µM
- TGI (OVCAR-4 ovarian): > 100 µM
- TGI (OVCAR-5 ovarian): > 100 µM
- TGI (OVCAR-8 ovarian): > 100 µM
- TGI (PC-3 prostate): > 100 µM
- TGI (RPMI-8226 leukemia): > 100 µM
- TGI (SF-268 CNS): > 100 µM
- TGI (SF-295 CNS): > 100 µM
- TGI (SF-539 CNS): > 100 µM
- TGI (SK-MEL-2 melanoma): > 100 µM
- TGI (SK-MEL-28 melanoma): > 100 µM
- TGI (SK-MEL-5 melanoma): > 100 µM
- TGI (SK-OV-3 ovarian): > 100 µM
- TGI (SN12C renal): > 100 µM
- TGI (SNB-19 CNS): > 100 µM
- TGI (SNB-75 CNS): > 100 µM
- TGI (SW-620 colon): > 100 µM
- TGI (T-47D breast): > 100 µM
- TGI (TK-10 renal): > 100 µM
- TGI (U251 CNS): > 100 µM
- TGI (UACC-257 melanoma): > 100 µM
- TGI (UACC-62 melanoma): > 100 µM
- TGI (UO-31 renal): > 100 µM
